Test results reported in patent US9127016B2, “Small molecule inhibitors of Dusp6 and uses therefor” (University of Pittsburgh—Of the Commonwealth System of …, priority 2009, dated 2015).

Assays:
[1] = target: Dusp3/VHR (Homo sapiens, UniProt P51452); test: OMFP phosphatase assay, Dusp3/VHR; format: biochemical; conditions: n=3, OMFP substrate, 15.2 nM-300 μM; read-out: mean in vitro values, VHR
Procedure: Enzyme activities in the presence or absence of BCI were measured using the artificial substrate […] at concentrations equal to the Km of each enzyme (Cdc25B, PTP1B & Dusp3/VHR) and at optimal pH for individual enzyme activity in a 96-well microtiter plate assay based on previously described methods by Lazo et al. (J Med Chem 44, 4042-9 (2001) and Lazo, J. S. et al. Bioorg Med Chem 14, 5643-50 (2006)). Briefly, the standard assay conditions contained 0.02 mg/ml OMFP in assay buffer (30 mM Tris-HCl (pH8.0), 75 mM NaCl, 1 mM EDTA, 0.33% BSA and 1 mM DTT). Fluorescence emission was measured after a sixty-minute incubation period at ambient temperature using a multiwell plate reader (SpectraMax m5, […]; excitation 485 nm, emission 525 nm). Sodium orthovanadate (100 μM) was used as a positive control for full phosphatase inhibition. IC50 concentrations were determined from three experiments using 10 concentrations of BCI ranging from 300 μM to 15.2 nM and GraphPad Prism 5.0 software.

[2] = tested on: Spry4; test: Zebrafish mRNA microinjection, rescue of sef expression, spry4; format: in vivo; conditions: 5 μM BCI, shield stage
Procedure: (§1) dusp6 and XFD mRNA for microinjection studies were generated as previously described (Tsang, M. et al. Development 131, 2769-79 (2004)). Both Dusp5 and Spry4 ORFs were amplified by RT-PCR from 24 hpf zebrafish with the following primers: […]
(§2) Amplified PCR products were subcloned into pCS2+, sequenced verified and mRNAs were synthesized as described previously. Embryos were injected with 500 pg mRNA at the 1-2 cell stage, treated with 5 μM BCI at the 1000-cell stage and fixed at shield stage for in situ hybridization.
(§3) In situ hybridization experiments were carried out as described previously (Kudoh, T. et al. Genome Res 11, 1979-87 (2001)). The probes eng3, krox20, sef, dusp6, gata4, nkx2.5, cmlc2, vmhc, scl, etsrp and hand2 were generated with a RNA labeling kit (Roche) (Tsang, M. et al. Development 131, 2769-79 (2004); Chen, J. N. et al. Development 122, 3809-16 (1996); Ekker, M., et al. Development 116, 1001-10 (1992); Liao, E. C. et al. Genes Dev 12, 621-6 (1998); Oxtoby, E. et al. Nucleic Acids Res 21, 1087-95 (1993); Pham, V. N. et al. Dev Biol 303, 772-83 (2007); Tsang, M., et al. Nat Cell Biol 4, 165-9 (2002); Yelon, D., et al. Dev Biol 214, 23-37 (1999); and Yelon, D. et al. Development 127, 2573-82 (2000)). The double fluorescent in situ hybridization protocol was described by Schoenbeck et al. (Dev Cell 13, 254-67 (2007)). […]

[3] = tested on: FGF target genes sef and spry4; test: Semi-quantitative RT-PCR of FGF target genes in treated embryos; format: in vivo, zebrafish; conditions: 24 hpf, 6 hours, 10 μM and 20 μM, n=3
Procedure: Zebrafish embryos were treated at 24 hpf for 6 hours with BCI at 10 μM and 20 μM followed by total RNA extraction with Trizol (Invitrogen). cDNA synthesis with SuperScript II Reverse Transcriptase (Invitrogen) was performed as described by manufacture's protocol and by Tsang et al. 17. For PCR reaction, HotMaster Taq (Eppendorf) was used with the following primers: […]
Cycle conditions were: 94° C. 30 sec, 55° C. 45 sec, 72° C. 40 sec, for 25 cycles. PCR products were resolved on 3% agarose gels.

[4] = tested on: FGF signaling (Tg(Dusp6:dsEGFP) reporter); test: Dose response of GFP expression in Tg(Dusp6:dsEGFP) embryos, automated imaging; format: in vivo, zebrafish; conditions: Danio rerio; treated at 24 hpf, 6 hours; read-out: EC50, GFP expression in transgenic embryos
Procedure: We tested a series of structurally related analogs of BCI in an in vivo assay. As described in Molina et al. (Nature Chemical Biology, 2009), Tg(Dusp6:dsEGFP) embryos were treated at 24 hours post fertilization with increasing doses of compounds. After 6 hours treatment, embryos were imaged by the IXU ImageXpress (Molecular Devices), and images were processed by Definiens Software. The software identified bright head structures and measured fluorescence.
Under similar conditions, BCI-related analogs were tested and EC50 values measured.

[5] = tested on: Dusp5; test: Zebrafish mRNA microinjection, rescue of sef expression, dusp5; format: in vivo; conditions: 5 μM BCI, shield stage
Procedure: as §1, §2, §3

[6] = tested on: FGF target genes; test: Whole mount in situ hybridization of FGF target genes in treated embryos; format: in vivo, zebrafish
Procedure: In situ hybridization experiments were carried out as described previously (Kudoh, T. et al. Genome Res 11, 1979-87 (2001)). The probes eng3, krox20, sef, dusp6, gata4, nkx2.5, cmlc2, vmhc, scl, etsrp and hand2 were generated with a RNA labeling kit (Roche) (Tsang, M. et al. Development 131, 2769-79 (2004); Chen, J. N. et al. Development 122, 3809-16 (1996); Ekker, M., et al. Development 116, 1001-10 (1992); Liao, E. C. et al. Genes Dev 12, 621-6 (1998); Oxtoby, E. et al. Nucleic Acids Res 21, 1087-95 (1993); Pham, V. N. et al. Dev Biol 303, 772-83 (2007); Tsang, M., et al. Nat Cell Biol 4, 165-9 (2002); Yelon, D., et al. Dev Biol 214, 23-37 (1999); and Yelon, D. et al. Development 127, 2573-82 (2000)). The double fluorescent in situ hybridization protocol was described by Schoenbeck et al. (Dev Cell 13, 254-67 (2007)). Fluorescent in situ hybridizations were visualized by confocal microscopy. Single optical sections and z-series of flat-mounted stained embryos were collected with a confocal laser scan head (SP5, Leica Microsystems, Inc.) mounted on an inverted compound microscope (DM16000, Leica Microsystems, Inc.). Images were scanned and compiled with NIH ImageJ software (rsb.info.nih.gov/ij/).
We previously described the generation of a transgenic zebrafish line, (Tg(Dusp6:d2EGFP)pt6) that expresses destabilized green fluorescent protein (d2EGFP) under the control of FGF signaling (Molina, G. A., et al. BMC Dev Biol 7, 62 (2007)). […] Five transgenic embryos at 24 hours post fertilization (hpf) were arrayed into each well of a 96-well plate containing test compounds at 10 μM. d2EGFP intensity in treated embryos was visually analyzed and compared to vehicle control (0.5% DMSO) after 6-8 hours. […] To confirm that BCI hyperactivated FGF signaling, we treated embryos prior to gastrulation (5 hpf), and we analyzed by whole mount in situ hybridization, the expression of ntl (zebrafish brachyury), a known FGF target gene (Latinkic, B. V. et al. Genes Dev 11, 3265-76 (1997)). […] We next determined the BCI structural features required to enhance FGF signaling. […]

[7] = tested on: FGF signaling (d2EGFP reporter); test: BCI analog SAR: d2EGFP intensity in transgenic zebrafish embryos by densitometry; format: in vivo; conditions: 20 μM, 24 hpf embryos, 6 h; for Activity (BCI = 100): d2EGFP intensity in the dorsal region
Procedure: Transgenic zebrafish embryos (24 hpf) were treated with 20 μM solution of BCI analogs in 0.5% aq DMSO and fluorescence photomicrographs were taken after 6 h. The effectiveness of BCI analogs was evaluated by densitometry (ImageJ) of d2EGFP intensity in the dorsal region.

Sequence of Dusp3/VHR (P51452 whole entry): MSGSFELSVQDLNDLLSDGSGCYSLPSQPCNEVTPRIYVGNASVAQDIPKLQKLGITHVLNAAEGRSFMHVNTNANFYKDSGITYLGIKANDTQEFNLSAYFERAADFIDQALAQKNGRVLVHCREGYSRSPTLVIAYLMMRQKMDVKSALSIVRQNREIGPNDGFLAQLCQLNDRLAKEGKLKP

| Compound | IC50 [1] [µM] | reversal of effects of spry4 mRNA on sef expression [2] | expression of sef and spry4 [3] | EC50 [4] [µM] | reversal of phenotype caused by Dusp5 over-expression [5] | expression of ntl ([6]; treated prior to gastrulation (5 hpf), 6-somite stage) | expression of engrailed3 (eng3) and krox20 ([6]; treatment during somitogenesis) | expression of dusp6 ([6]; treatment from the 1- to 10-somite stage) | Activity (BCI = 100) ([7]; listed as 3 (BCI)) | in vivo activity relative to BCI, in words [7] | Activity (BCI = 100) [7] |
| --- | --- | --- | --- | --- | --- | --- | --- | --- | --- | --- | --- |
| O=C1/C(=C/c2ccccc2)C(NC2CCCCC2)c2ccccc21 (centres unmarked) [Compound 3, (E)-2-benzylidene-3-(cyclohexylamino)-2,3-dihydro-1H-inden-1-one] | > 300 | did not reverse | increase | 11.4 | little or no effect | greatly expanded | increased expression | marked increase | 100 | – | – |
| O=C1CC(NC2CCCCC2)c2ccccc21 (centres unmarked) [Compound 17, 3-(Cyclohexylamino)-2,3-dihydro-1H-inden-1-one] | – | – | – | – | – | – | – | – | – | inactive | 0 |
